Reference: US20150315188A1, “COMPOUNDS AND METHODS FOR TREATMENT OF HYPERTENSION” (MEDIVATION TECHNOLOGIES, INC., priority 2012, published 2015)

Key:
Set-up in all cases: purchased Milipore (Millipore)
[1] = target: T1, Human adrenergic α2B receptor (Homo sapiens, UniProt P18089); experiment: Radioligand binding, adrenergic α2B (Protocol Group B); details: Protocol Group B; for inhibition at 0.01 µM / Percentage inhibition of ligand binding, Adrenergic α2B (10 nM): 10 nM compound; for inhibition at 0.01 µM: read-out: Percentage inhibition of ligand binding, Adrenergic α2B (10 nM); for inhibition at 0.03 µM / Percentage inhibition of ligand binding, Adrenergic α2B (30 nM): 30 nM compound; for inhibition at 0.03 µM: read-out: Percentage inhibition of ligand binding, Adrenergic α2B (30 nM); for inhibition at 0.1 µM / Percentage inhibition of ligand binding, Adrenergic α2B (0.1 μM): 0.1 μM compound; for inhibition at 0.1 µM: read-out: Percentage inhibition of ligand binding, Adrenergic α2B (0.1 μM); for Percentage inhibition of ligand binding, Adrenergic α2B (30 nM): 0.03 µM; for Percentage inhibition of ligand binding, Adrenergic α2B (10 nM): 0.01 µM
T1 sequence (P18089 1-450): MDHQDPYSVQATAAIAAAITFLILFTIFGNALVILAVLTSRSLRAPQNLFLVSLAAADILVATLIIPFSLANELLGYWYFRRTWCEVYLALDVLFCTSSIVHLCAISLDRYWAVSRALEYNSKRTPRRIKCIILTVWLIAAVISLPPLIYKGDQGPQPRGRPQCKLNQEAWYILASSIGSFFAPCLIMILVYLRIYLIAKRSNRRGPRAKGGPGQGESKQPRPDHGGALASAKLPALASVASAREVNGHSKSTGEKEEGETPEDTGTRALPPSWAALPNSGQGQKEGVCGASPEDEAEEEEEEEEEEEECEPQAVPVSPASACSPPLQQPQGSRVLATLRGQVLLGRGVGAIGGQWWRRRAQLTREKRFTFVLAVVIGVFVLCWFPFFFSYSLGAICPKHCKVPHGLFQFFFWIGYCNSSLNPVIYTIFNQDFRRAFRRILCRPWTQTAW
Outline: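 Compounds at various concentrations in 1% DMSO were tested on recombinant membranes in Tris-HCl pH 7.4 buffer containing MgCl2, CaCl2 and 0.2% BSA.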

[2] = target: T2, Human adrenergic α2A receptor (Homo sapiens, UniProt P08913); experiment: Radioligand binding, adrenergic α2A (Protocol Group B); details: Protocol Group B; for inhibition at 0.1 µM / Percentage inhibition of ligand binding, Adrenergic α2A (0.1 μM): 0.1 μM compound; for inhibition at 0.1 µM: read-out: Percentage inhibition of ligand binding, Adrenergic α2A (0.1 μM); for inhibition at 0.3 µM / Percentage inhibition of ligand binding, Adrenergic α2A (0.3 μM): 0.3 μM compound; for inhibition at 0.3 µM: read-out: Percentage inhibition of ligand binding, Adrenergic α2A (0.3 μM)
T2 sequence (P08913 1-465): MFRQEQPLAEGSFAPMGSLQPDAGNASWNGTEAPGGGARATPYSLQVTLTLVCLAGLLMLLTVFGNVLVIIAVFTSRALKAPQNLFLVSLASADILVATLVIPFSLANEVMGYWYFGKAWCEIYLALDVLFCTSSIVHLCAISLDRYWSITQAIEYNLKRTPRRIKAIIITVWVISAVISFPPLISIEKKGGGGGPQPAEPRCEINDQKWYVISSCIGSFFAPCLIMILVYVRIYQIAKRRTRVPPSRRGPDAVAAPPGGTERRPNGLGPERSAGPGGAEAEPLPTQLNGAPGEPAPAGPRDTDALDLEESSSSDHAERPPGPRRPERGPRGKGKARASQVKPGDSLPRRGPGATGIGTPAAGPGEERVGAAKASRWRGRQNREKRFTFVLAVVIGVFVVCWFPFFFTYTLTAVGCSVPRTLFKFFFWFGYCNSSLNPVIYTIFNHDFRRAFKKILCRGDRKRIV
Outline: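 Compounds (1% DMSO vehicle, various concentrations) competed against 2 nM [^3H]MK-912 on recombinant receptor membranes for 60 min at 25° C, Tris-HCl pH 7.4 buffer with Mg2+, Ca2+, BSA. Bound radioligand filtered and counted; 10 μM rauwolscine set nonspecific binding. Values: percent inhibition of specific binding or estimated Ki.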

[3] = target: T3, Human adrenergic α1B receptor (Homo sapiens, UniProt P35368); experiment: Radioligand binding, adrenergic α1B (Protocol Group B); details: Protocol Group B; for inhibition at 0.1 µM / Percentage inhibition of ligand binding, Adrenergic α1B (0.1 μM): 0.1 μM compound; for inhibition at 0.1 µM: read-out: Percentage inhibition of ligand binding, Adrenergic α1B (0.1 μM); for inhibition at 0.3 µM / Percentage inhibition of ligand binding, Adrenergic α1B (0.3 μM): 0.3 μM compound; for inhibition at 0.3 µM: read-out: Percentage inhibition of ligand binding, Adrenergic α1B (0.3 μM)
T3 sequence (P35368 1-520): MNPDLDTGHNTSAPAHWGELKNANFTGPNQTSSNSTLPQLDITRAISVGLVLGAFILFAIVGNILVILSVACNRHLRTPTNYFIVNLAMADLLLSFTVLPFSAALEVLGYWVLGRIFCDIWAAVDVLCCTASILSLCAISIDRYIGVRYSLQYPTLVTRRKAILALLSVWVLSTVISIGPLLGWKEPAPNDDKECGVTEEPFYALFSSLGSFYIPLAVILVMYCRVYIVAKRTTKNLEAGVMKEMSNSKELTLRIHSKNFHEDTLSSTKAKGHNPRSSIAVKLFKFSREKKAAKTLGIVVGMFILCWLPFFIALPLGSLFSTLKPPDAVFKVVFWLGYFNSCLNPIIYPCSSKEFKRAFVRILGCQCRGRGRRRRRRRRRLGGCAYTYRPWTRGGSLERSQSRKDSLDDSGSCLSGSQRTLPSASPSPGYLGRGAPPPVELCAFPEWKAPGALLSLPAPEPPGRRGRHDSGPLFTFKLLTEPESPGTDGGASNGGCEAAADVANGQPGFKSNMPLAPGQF
Outline: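 Values are percent inhibition of specific [3H]prazosin (0.3 nM) binding or estimated Ki, from filtration counting. Human α1B recombinant membranes, Tris-HCl pH 7.4 buffer with MgCl2 and EDTA, 60 min at 25 °C, 1% DMSO vehicle; 10 μM prazosin defined nonspecific binding.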

Row | SMILES | inhibition at 0.01 µM [1] [%] | inhibition at 0.03 µM [1] [%] | inhibition at 0.1 µM [1] [%] | inhibition at 0.1 µM [2] [%] | inhibition at 0.3 µM [2] [%] | inhibition at 0.1 µM [3] [%] | inhibition at 0.3 µM [3] [%] | Percentage inhibition of ligand binding, Adrenergic α2B (30 nM) [1] [%] | Percentage inhibition of ligand binding, Adrenergic α2A (0.1 μM) [2] [%] | Percentage inhibition of ligand binding, Adrenergic α1B (0.1 μM) [3] [%] | Percentage inhibition of ligand binding, Adrenergic α2B (10 nM) [1] [%] | Percentage inhibition of ligand binding, Adrenergic α2B (0.1 μM) [1] [%] | Percentage inhibition of ligand binding, Adrenergic α2A (0.3 μM) [2] [%] | Percentage inhibition of ligand binding, Adrenergic α1B (0.3 μM) [3] [%]
1 | Cc1cc(F)c2c(c1)c1c(n2CC(C)(O)c2ccncc2)CCN2CCCC12 (single isomer, unassigned) [81d] |  |  |  |  |  |  |  | 8 | 11 | 5 | −7 | 18 | 6 | 9
2 | Cc1ccc2c(c1)c1c(n2CC(C)(O)c2cncc(F)c2)CCN(C)C1 (single isomer, unassigned) [46b] |  |  |  |  |  |  |  | 15 | −1 | 0 | 0 | 37 | 3 | 10
3 | Cc1ccc2c(c1)c1c(n2CC(C)(O)c2cccnc2)CC(CO)N(C)C1 (single isomer, unassigned) [15b] |  |  |  |  |  |  |  | −11 | 1 | 12 | 6 | 16 | 0 | 16
4 | Cc1cc(F)cc2c3c(n(CC(C)(O)c4ccncc4)c12)CCN1CCCC31 (single isomer, unassigned) [77b] |  |  |  |  |  |  |  | 12 | 5 | −3 | 6 |  | 9 | 14
5 | Cc1ccc2c(c1)c1c(n2CC(C)(O)c2ccncc2)CC2CCCN2C1 (single isomer, unassigned) [37a] | 27 | 50 | 69 |  | 21 |  |  |  | 14 | 26 |  |  |  | 34
6 | CC(O)(Cn1c2c(c3cc(C(F)(F)F)ccc31)C1CCCN1CC2)c1cccnc1 (single isomer, unassigned) [64b] |  |  |  |  |  |  |  | 47 | 10 | 4 | 15 | 76 | 37 | 27
7 | Cc1cc(F)c2c(c1)c1c(n2CC(C)(O)c2cccnc2)CC2CCCN2C1 (single isomer, unassigned) [61d] |  |  |  |  |  |  |  | 11 | −10 | 0 | 0 | 23 | −4 | 1

More lines, now with the values ahead:

Row | inhibition at 0.01 µM [1] [%] | inhibition at 0.03 µM [1] [%] | inhibition at 0.1 µM [1] [%] | inhibition at 0.1 µM [2] [%] | inhibition at 0.3 µM [2] [%] | inhibition at 0.1 µM [3] [%] | inhibition at 0.3 µM [3] [%] | Percentage inhibition of ligand binding, Adrenergic α2B (30 nM) [1] [%] | Percentage inhibition of ligand binding, Adrenergic α2A (0.1 μM) [2] [%] | Percentage inhibition of ligand binding, Adrenergic α1B (0.1 μM) [3] [%] | Percentage inhibition of ligand binding, Adrenergic α2B (10 nM) [1] [%] | Percentage inhibition of ligand binding, Adrenergic α2B (0.1 μM) [1] [%] | Percentage inhibition of ligand binding, Adrenergic α2A (0.3 μM) [2] [%] | Percentage inhibition of ligand binding, Adrenergic α1B (0.3 μM) [3] [%] | SMILES
8 | 81 | 99 | 101 | 71 | 87 | 74 | 90 |  |  |  |  |  |  |  | Cc1ccc2c(c1)c1c(n2CC(O)c2ccncc2F)CCN2CCCC12 (centres unmarked) [compound 14, 1-(3-fluoropyridin-4-yl)-2-(10-methyl-2,3,5,6-tetrahydro-1H-indolizino[7,8-b]indol-7 (11cH)-yl)ethanol]
9 |  |  |  |  |  |  |  | −8 | −12 | −2 |  |  |  |  | Cc1cc(F)cc2c3c(n(CC(O)c4ccncc4)c12)CCN1CCCC31 (single isomer, unassigned) [136d]
10 |  |  |  |  |  |  |  | 1 | 1 | 1 |  |  |  |  | OC(Cn1c2c(c3cc(F)cc(F)c31)C1CCCN1CC2)c1ccncc1 (single isomer, unassigned) [144d]
11 | -7 | -5 |  | -14 | -17 | -12 | -3 |  |  |  |  |  |  |  | CC(O)(Cn1c2c(c3cc(C(F)(F)F)ccc31)CN1CCCC1C2)c1cccnc1 (centres unmarked) [85b]
12 |  | 92 |  |  |  |  |  |  | 52 | 46 |  |  |  |  | Cc1cc(Cl)c2c(c1)c1c(n2CC(O)c2ccncc2)CCN2CCCC12 (single isomer, unassigned) [142a]
13 |  | 84 |  |  |  |  |  |  | 39 | 46 |  |  |  |  | Cc1cc(Br)c2c(c1)c1c(n2CC(O)c2ccncc2)CCN2CCCC12 (single isomer, unassigned) [145a]
14 | 50 | 74 | 91 | 28 | 53 | 9 | 40 |  |  |  |  |  |  |  | Cc1ccc2c(c1)c1c(n2CC(OC(C)C)c2ccncc2)CCN(C)C1 (centres unmarked) [compound 49, 5-(2-isopropoxy-2-(pyridin-4-yl)ethyl)-2,8-dimethyl-2,3,4,5-tetrahydro-1H-pyrido[4,3-b]indole]
15 |  |  |  |  |  |  |  | −9 | 0 | 4 |  |  |  |  | Cc1ccc2c(c1)c1c(n2CC(OCC2CCC2)c2ccncc2)CCN2CCCC12 (single isomer, unassigned) [138c]
16 |  |  |  |  |  |  |  | 8 | 0 | −7 | −1 |  | 2 | 9 | OC(Cn1c2c(c3cc(Cl)cc(F)c31)C1CCCN1CC2)c1ccncc1 (single isomer, unassigned) [135d]
